Usually IC95 stands for the concentration at which the effect reaches the 95% level. As usually defined, the IC50 is the concentration at which inhibition is half-maximal.

This is an account of results in patent US20100093811A1 (priority 2007, published 2010).

Assay [1] has as its system acute HIV infection of T-lymphoid cells. Put plainly: Assay for inhibition of HIV replication (spread assay). Conditions: read-out: Spread - IC95. The format is cell-based, HIV-1. As for the experimental part:
• Assay for Inhibition of HIV Replication
Assays for the inhibition of acute HIV infection of T-lymphoid cells were conducted in accordance with Vacca, J. P. et al., Proc. Natl. Acad. Sci. USA 1994, 91: 4096.

Another assay has as its target wild-type HIV-1 protease (Human immunodeficiency virus type 1 group M subtype B, UniProt P04585). The assay is described as follows: Assay for inhibition of microbial expressed HIV protease. The format is biochemical. The essentials:
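Inhibition taken from HPLC (C18) product peak areas after phosphoric acid quench. Reaction: 440 micromolar Val-Ser-Gln-Asn-(betanapthyl)Ala-Pro-Ile-Val peptide, 5 pM E. coli-made protease, 1 h at 30° C, following 30 min room-temperature inhibitor preincubation in pH 5.5 acetate/NaCl/BSA buffer.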

[2] abbreviates: Human immunodeficiency virus 1, T-lymphoid.
The mark [3] stands for this setting: wild-type HIV-1 protease expressed in E. coli, peptide substrate, pH 5.5, read-out: Enzyme Inhibition - IC50.

Structures can show the parent of a compound that is named as a salt. Where two headings read alike, the source gives them in different places.

In the case of `CCCN([C@H](CO)CCCC(C)(C)NC(=O)[C@@H](NC(=O)OC)C(c1ccccc1)c1ccccc1)S(=O)(=O)c1ccc(N)cc1` [Example L6, N-{(5S)-5-[[(4-aminophenyl)sulfonyl](propyl)amino]-6-hydroxy-1,1-dimethylhexyl}-Nα-(methoxycarbonyl)-β-phenyl-L-phenylalaninamide], the IC95 in assay [1] (setting [2]) was 196 nM. Moreover, the IC50 on wild-type HIV-1 protease (setting [3]) is 0.095 nM.

Turning to `COC(=O)N[C@H](C(=O)NC(C)(C)CCC[C@@H](CO)N(CCCF)S(=O)(=O)c1ccc(N)cc1)C(c1ccccc1)c1ccccc1` [Example L7, N-{(5S)-5-[[(4-aminophenyl)sulfonyl](3-fluoropropyl)amino]-6-hydroxy-1,1-dimethylhexyl}-Nα-(methoxycarbonyl)-β-phenyl-L-phenylalaninamide], the IC95 in assay [1] (setting [2]) worked out at 178 nM. In addition, the IC50 at wild-type HIV-1 protease (setting [3]) turned out to be 0.062 nM.

Turning to `COC(=O)N[C@H](C(=O)NC(C)(C)CCC[C@@H](CO)N(C(C)C)S(=O)(=O)c1ccc(N)cc1)C(c1ccccc1)c1ccccc1` [Example L8], the IC95 in assay [1] (setting [2]) was 264 nM. At wild-type HIV-1 protease (setting [3]), the IC50 is 0.267 nM.

As to `CN[C@H](C(=O)NC(C)(C)CCC[C@@H](CO)N(C(C)C)S(=O)(=O)c1ccc(N)cc1)C(c1ccccc1)c1ccccc1` [Example L9, N-{(5S)-5-[[(4-aminophenyl)sulfonyl](isopropyl)amino]-6-hydroxy-1,1-dimethylhexyl}-Nα-methyl-β-phenyl-L-phenylalaninamide hydrochloride], the IC95 in assay [1] (setting [2]) turned out to be 26 nM. Half-maximal inhibition against wild-type HIV-1 protease (IC50) was put at 0.1 nM.

For the compound `CC(C)N([C@H](CO)CCCC(C)(C)NC(=O)[C@@H](N)Cc1ccccc1Cl)S(=O)(=O)c1ccc(N)cc1` [Example L10, N-{(5S)-5-[[(4-aminophenyl)sulfonyl](isopropyl)amino]-6-hydroxy-1,1-dimethylhexyl}-2-chloro-L-phenylalaninamide hydrochloride], the IC95 in assay [1] (setting [2]) turned out to be 241 nM. Also, half-maximal inhibition against wild-type HIV-1 protease (IC50) required 3.2 nM.

“Methyl {(1S)-1-(diphenylmethyl)-2-[((5S)-6-hydroxy-2-methyl-5-{(3-methylbutyl) [(4-methylphenyl)sulfonyl]amino}hexylamino]-2-oxoethyl}carbamate [Example C1]”: in assay [1] (inhibition of HIV-1 replication, 10% FBS), the IC95 is 193 nM. Besides, the IC50 on wild-type HIV-1 protease (setting [3]) worked out at 0.2 nM.
